Assay results: PMC5778071, “Development of matrix metalloproteinase-targeted probes for lung inflammation detection with positron emission tomography” (Scientific Reports, 2018)
“And” between values parts separate entries of the source, which are not always exact repeats. Equal entries are not always repeated.

Experiments:
[1] = system: MMP-12; parameters: method as in PMID 25438884; conditions: fluorogenic inhibition assay; cited from earlier work
[2] = system: MMP-9; parameters: method as in PMID 25438884; conditions: fluorogenic inhibition assay; cited from earlier work
[3] = Ex vivo autoradiography of lung sections; assay type: in vivo, BALB/c mice; conditions: after PET scan; for Radioactivity accumulation in lung sections (autoradiography): 20 μm sections
Method: Following the PET experiments, the frozen lungs were cut into 20 μm thick sections with a cryomicrotome (Cryotome FSE; ThermoFisher Scientific, Tokyo, Japan). Lung sections at intervals of 100 μm (n = 2 each, 9 positions) were exposed to imaging plates (BAS-SR; GE Healthcare Japan, Tokyo, Japan) for 3 h. To quantify the signals, various concentrations of the administrated ^18F-IPFP dilutions were also plotted and exposed to imaging plates. Autoradiograms were obtained with a Typhoon FLA 7000 scanner, (GE Healthcare Japan), and the resulting images were analyzed by ImageQuant TL (GE Healthcare Japan). Radioactivities per area were determined by image analysis of the resulting autoradiograms and expressed as percent injected dose (%ID) per section calculated using the quantitation curve obtained by the ^18F-IPFP dilutions.

[4] = In vivo PET imaging of lung region; parameters: species or system BALB/c mice; conditions: 50–60 min after injection
Method: PET data were acquired in list mode using a microPET Focus120 apparatus (Siemens), with a spatial resolution of 1.2 mm at the center of the field of view[24]. Animals (n = 2 per group) were placed in a prone position under 1–2% isoflurane anesthesia on a heating pad to maintain body temperature at 36–37 °C during the PET experiments. A transmission […] scan using an external ^68Ge source was acquired before the PET scan for attenuation correction. At the start of the PET scan, intravenous administration of ^18F-IPFP (4.7–8.1 MBq/100 μl saline containing 0.1% tween 80) was initiated for 15 sec followed by a 50–100 μl saline flush for 15 sec. The scan duration was 60 min. Following the PET scan, mice were immediately euthanized with an anesthesia overdose, followed by extraction of the lungs and heart. Extracted organs were placed on the PET bed and scanned for another 10 min. Thereafter, the lungs were frozen for ex vivo autoradiography analysis. Emission images were reconstructed using Fourier rebinning[25] and a maximum likelihood expectation maximization algorithm with a 128 × 128 × 95 matrix size, and a 0.43 × 0.43 × 0.80 mm^3 voxel size. The uptake of the tracer in the regions of interest was converted to the standardized uptake values (SUVs).

[5] = In vivo biodistribution study in Air and CS (COPD model) mice; parameters: species or system BALB/c mice; conditions: for Tissue radioactivity, Blood / Tissue radioactivity, Bone / Tissue radioactivity, Heart / Tissue radioactivity, Intestine / Tissue radioactivity, Kidney / Tissue radioactivity, Liver / Tissue radioactivity, Lung / Tissue radioactivity, Muscle / Tissue radioactivity, Pancreas / Tissue radioactivity, Spleen / Tissue radioactivity, Stomach: i.v.
Method: The animals were randomly divided into two groups, control air-exposed (Air, n = 18) and cigarette smoke exposed (CS, n = 18) groups. The mice in the CS group were exposed to cigarette smoke for 10 min inside an acrylic box twice a day, 4–5 times a week, for 4 months using 1 cigarette (Peace, Japan Tobacco Inc., Tokyo, Japan) for every exposure following a previous report with slight modifications. The mice in the Air group were identically exposed to air without CS in a similar box. After the CS treatment, the animals were kept under normal warm and clean environmental conditions to allow for recovery and then housed as described above.
Animals from each study group were randomly divided into 3 groups (n = 3 each) for each time point studied. Mice that were intravenously administered ^18F-IPFP (185 kBq/100 μl saline containing 0.1% tween 80) were sacrificed by cervical dislocation at 20, 45, and 90 min, and 5, 45, and 90 min after administration for the Air and CS groups, respectively. Blood was immediately collected from the heart cavity. Tissues were excised, weighed, and counted for radioactivity with an NaI well-type scintillation counter (1470 Wizard; PerkinElmer, Kanagawa, Japan).

[6] = Air group, 20 min after injection
[7] = Air group, 45 min after injection
[8] = Air group, 90 min after injection
[9] = CS group, 5 min after injection
[10] = CS group, 45 min after injection
[11] = CS group, 90 min after injection

SMILES: CC(C)C[C@H](CC(=O)NO)C(=O)N[C@@H](Cc1ccccc1)C(=O)N[C@@H](CCCCNC(=O)c1ccc(F)cc1)C(N)=O [^18F-FB-ML5]
- IC50 [1]: 138 nM
- IC50 [2]: 31.5 nM

SMILES: CC(C)C[C@H](CC(=O)NO)C(=O)N[C@@H](Cc1ccc(I)cc1)C(=O)N[C@@H](CCCCNC(=O)C(C)[18F])C(N)=O (stereo partly drawn) [^18F-IPFP]
- Radioactivity accumulation in lung sections (autoradiography) ([3]; Air group): 16.2 ± 2.0 × 10^−4 %ID/section
- Radioactivity accumulation in lung sections (autoradiography) ([3]; CS group): 30.0 ± 3.0 × 10^−4 %ID/section
- Radioactivity accumulation in lung sections, CS group vs Air group (autoradiography) [3]: 2 fold
- SUV in the lung regions (PET) ([4]; Air group): 0.17
- SUV in the lung regions (PET) ([4]; CS group): 0.22
- Radioactivity accumulation in the lungs, CS group compared with Air group ([5]; 90 min after administration): > 4 fold and 4 fold
- Tissue radioactivity, Blood [5, 6]: 0.5 ± 0.1 %ID/g
- Tissue radioactivity, Bone [5, 6]: 0.4 ± 0.0 %ID/g
- Tissue radioactivity, Heart [5, 6]: 0.5 ± 0.1 %ID/g
- Tissue radioactivity, Intestine [5, 6]: 10.7 ± 2.2 %ID/g
- Tissue radioactivity, Kidney [5, 6]: 37.6 ± 6.4 %ID/g
- Tissue radioactivity, Liver [5, 6]: 22.6 ± 0.7 %ID/g
- Tissue radioactivity, Lung [5, 6]: 5.3 ± 0.6 %ID/g
- Tissue radioactivity, Muscle [5, 6]: 0.3 ± 0.1 %ID/g
- Tissue radioactivity, Pancreas [5, 6]: 5.4 ± 0.7 %ID/g
- Tissue radioactivity, Spleen [5, 6]: 0.9 ± 0.1 %ID/g
- Tissue radioactivity, Stomach [5, 6]: 2.8 ± 2.1 % injected dose
- Tissue radioactivity, Blood [5, 7]: 0.6 ± 0.0 %ID/g
- Tissue radioactivity, Bone [5, 7]: 0.5 ± 0.1 %ID/g
- Tissue radioactivity, Heart [5, 7]: 0.5 ± 0.0 %ID/g
- Tissue radioactivity, Intestine [5, 7]: 16.9 ± 3.0 %ID/g
- Tissue radioactivity, Kidney [5, 7]: 38.8 ± 4.2 %ID/g
- Tissue radioactivity, Liver [5, 7]: 15.2 ± 1.6 %ID/g
- Tissue radioactivity, Lung [5, 7]: 2.4 ± 0.4 %ID/g
- Tissue radioactivity, Muscle [5, 7]: 0.3 ± 0.2 %ID/g
- Tissue radioactivity, Pancreas [5, 7]: 4.5 ± 0.8 %ID/g
- Tissue radioactivity, Spleen [5, 7]: 0.8 ± 0.1 %ID/g
- Tissue radioactivity, Stomach [5, 7]: 1.5 ± 1.0 % injected dose
- Tissue radioactivity, Blood [5, 8]: 0.7 ± 0.1 %ID/g
- Tissue radioactivity, Bone [5, 8]: 0.7 ± 0.2 %ID/g
- Tissue radioactivity, Heart [5, 8]: 0.5 ± 0.1 %ID/g
- Tissue radioactivity, Intestine [5, 8]: 18.4 ± 2.1 %ID/g
- Tissue radioactivity, Kidney [5, 8]: 34.6 ± 3.3 %ID/g
- Tissue radioactivity, Liver [5, 8]: 11.2 ± 1.1 %ID/g
- Tissue radioactivity, Lung [5, 8]: 1.3 ± 0.1 %ID/g
- Tissue radioactivity, Muscle [5, 8]: 0.4 ± 0.1 %ID/g
- Tissue radioactivity, Pancreas [5, 8]: 3.9 ± 0.6 %ID/g
- Tissue radioactivity, Spleen [5, 8]: 0.8 ± 0.2 %ID/g
- Tissue radioactivity, Stomach [5, 8]: 0.5 ± 0.2 % injected dose
- Radioactivity accumulation in the lungs relative to heart, muscle and blood ([5]; COPD mice, 90 min after administration): 10 fold
- Tissue radioactivity, Blood [5, 9]: 0.8 ± 0.1 %ID/g
- Tissue radioactivity, Bone [5, 9]: 1.0 ± 0.3 %ID/g
- Tissue radioactivity, Heart [5, 9]: 0.9 ± 0.3 %ID/g
- Tissue radioactivity, Intestine [5, 9]: 6.0 ± 0.6 %ID/g
- Tissue radioactivity, Kidney [5, 9]: 34.1 ± 3.6 %ID/g
- Tissue radioactivity, Liver [5, 9]: 30.8 ± 4.6 %ID/g
- Tissue radioactivity, Lung [5, 9]: 9.4 ± 1.9 %ID/g
- Tissue radioactivity, Muscle [5, 9]: 0.6 ± 0.1 %ID/g
- Tissue radioactivity, Pancreas [5, 9]: 6.2 ± 0.3 %ID/g
- Tissue radioactivity, Spleen [5, 9]: 2.5 ± 0.4 %ID/g
- Tissue radioactivity, Stomach [5, 9]: 1.0 ± 0.4 % injected dose
- Radioactivity accumulation in the lungs relative to surrounding tissues (heart, blood, muscle) [5, 10]: > 10 fold
- Tissue radioactivity, Blood [5, 10]: 0.5 ± 0.1 %ID/g
- Tissue radioactivity, Bone [5, 10]: 0.6 ± 0.1 %ID/g
- Tissue radioactivity, Heart [5, 10]: 0.5 ± 0.1 %ID/g
- Tissue radioactivity, Intestine [5, 10]: 13.1 ± 0.3 %ID/g
- Tissue radioactivity, Kidney [5, 10]: 31.7 ± 2.2 %ID/g
- Tissue radioactivity, Liver [5, 10]: 17.4 ± 4.1 %ID/g
- Tissue radioactivity, Lung [5, 10]: 5.6 ± 0.5 %ID/g
- Tissue radioactivity, Muscle [5, 10]: 0.3 ± 0.1 %ID/g
- Tissue radioactivity, Pancreas [5, 10]: 4.8 ± 0.6 %ID/g
- Tissue radioactivity, Spleen [5, 10]: 1.2 ± 0.2 %ID/g
- Tissue radioactivity, Stomach [5, 10]: 2.2 ± 0.2 % injected dose
- Tissue radioactivity, Blood [5, 11]: 0.6 ± 0.1 %ID/g
- Tissue radioactivity, Bone [5, 11]: 0.8 ± 0.2 %ID/g
- Tissue radioactivity, Heart [5, 11]: 0.6 ± 0.1 %ID/g
- Tissue radioactivity, Intestine [5, 11]: 15.7 ± 0.9 %ID/g
- Tissue radioactivity, Kidney [5, 11]: 25.4 ± 5.2 %ID/g
- Tissue radioactivity, Liver [5, 11]: 12.0 ± 1.0 %ID/g
- Tissue radioactivity, Lung [5, 11]: 6.3 ± 0.3 %ID/g
- Tissue radioactivity, Muscle [5, 11]: 0.3 ± 0.1 %ID/g
- Tissue radioactivity, Pancreas [5, 11]: 3.9 ± 0.4 %ID/g
- Tissue radioactivity, Spleen [5, 11]: 1.3 ± 0.2 %ID/g
- Tissue radioactivity, Stomach [5, 11]: 1.4 ± 0.5 % injected dose
- accumulation ratio of lung to liver ([5]; mouse, in vivo): > 0.5
- Radioactivity uptake in the bone ([5]; over the time window, suggests absence of defluorination): low
